Data published in publication PMC6199309, “A therapeutic approach to pantothenate kinase associated neurodegeneration” (Nature Communications, 2018).
In brackets after ≈: the same amount, converted by molar mass. Entries after “also recorded” stand apart in the source; their conditions may differ. Structures can show the parent of a compound that is named as a salt.

Key:
C3A cells = experiment: Intracellular CoA and metabolite levels in C3A cells; assay type: cell-based, human
Protocol: HEK293T cells (ATCC, #CRL-3216) were maintained in Dulbecco’s modified Eagle’s medium (DMEM, Biowhittaker/Lonza) supplemented with 10% FCS. Human C3A [HepG2/C3A, derivative of HepG2] cells (ATCC #CRL-10741) were purchased from ATCC® and maintained in Eagle’s minimum Essential medium (ATCC) supplemented with 2 mM glutamine, 10% fetal bovine serum (FCS, Altanta Biologicals), 50 U/ml penicillin and […] streptomycin. Both cell lines were confirmed to be mycoplasma-free. […]. […] After 24 h of treatment (total 48 h after transfection) the cells were washed with PBS and harvested and subjected to either total CoA or acetyl-CoA determinations.
Prior to labeling, cells were seeded at a density of 2–3 × 10^6 in 60 mm-dishes in reconstituted DMEM without added pantothenate and allowed to adhere overnight. The labeling was initiated by replacing the medium with 2 ml of labeling medium containing 0.1% dimethylsulfoxide (DMSO; control) or 10 μM of the compound in 0.1% DMSO. Cells were incubated for 24 h, the labeling medium was removed, and cells were washed with phosphate buffered saline and lysed by sonication in 20 mM Tris-HCl, pH 7.5, 2 mM DTT, 5 mM EDTA and 50 mM NaF. The lysates were fractionated by thin-layer chromatography after removal of the cell debris by centrifugation. The samples were spotted on Silica Gel H plates and resolved with 95% ethanol:28% ammonium hydroxide (4/1, v/v). The distribution of radioactivity on the plate was quantified using a Bioscan Imager (Bioscan, Inc.) together with quantification of the total cellular radioactivity determined by a Liquid Scintillation Analyzer (PerkinElmer Tri-Carb 2910 TR). Triplicate culture dishes were labeled for each group plus a dish for each group for determination of cell counts and viability using a Nucleocounter (New Brunswick Scientific) according to the manufacturer’s directions. The experiments were repeated twice in duplicate and the data represented is an overall average ± SEM.
Cultured cells or frozen tissues were resuspended in 2 ml cold water to which 500 μl of 0.25 M KOH was added, derivatized with monobromobimane (mBBr, Life technologies) and quantified by HPLC[23]. For acetyl-CoA determinations, C3A cells were resuspended in 1 ml water, added to 2 ml of methanol and 1 ml chloroform, and incubated on ice for 15 min. Chloroform 1.5 ml, 1.2 ml water and 30 pmol of [^13C2]acetyl-CoA (Sigma) was added, and centrifuged at 2000×g for 10 min. The top layer was loaded on a 2-(2-pyridyl) ethyl solid phase extraction column which was equilibrated with 1 ml 50% methanol/2% acetic acid. The column was washed twice with 1 ml 50% methanol/2% acetic acid and 1 ml water. CoA and thioesters were eluted twice with 1 ml 95% ethanol containing 50 mM ammonium hydroxide. Samples were resuspended in 90% methanol containing 15 mM ammonium hydroxide.
The mBBr derivatized sample was fractionated by reverse-phase HPLC using a Gemini C18 3 μm column (150 × 4.60 mm) from Phenomenex. The chromatography system was a Waters e2695 separation module with a UV/Vis and fluorescence detector and controlled by Empower 3 software. Solvent A was 50 mM potassium phosphate pH 4.6, and solvent B was 100% acetonitrile. Twenty microliters of sample was injected onto the column, and the flow rate was 0.5 ml/min. The HPLC program was the following: starting solvent mixture of 90% A/10% B, 0–2 min isocratic with 10% B, 2–6 min linear gradient from 10% B to 15% B, 6–18 min concave gradient from 15% B to 40% B, 18–23 min isocratic with 40% B, 23–25 min linear gradient from 40 to 10%, and 25–30 min isocratic with 10% B. The UV/vis detector was set at 393 nm, and the fluorescence detector was set with excitation at 393 nm and emission at 470 nm. […]

[1] = Tissue pantothenate levels in mice; assay type: in vivo; settings: C57Bl6/J, mouse, liver; 200 mg/kg pantothenate by oral gavage, 4 h after last of 5 doses; read-out: calculated intracellular pantothenate concentration in liver
Protocol: Plasma (10 μl) was added to 800 μl methanol and 190 μl water along with 200 pmol (β-alanyl-^13C3^15N)-pantothenate (^13C^15N-Pan, Sigma). Tissue (30–40 mg) was homogenized in 2 ml of 80% methanol, and 500 pmol of ^13C^15N-Pan was added. The samples were incubated at −80 °C for 4 h. Samples were spun at 3500xg for 10 min to pellet debris, and supernatant was transferred to a new tube and dried using a SpeedVac overnight. Samples were resuspended in water + 0.1% formic acid and spun through a Spin-X Centrifuge Tube Filter (0.22 μm Cellulose Acetate, Costar).
Pantothenate was analyzed using a Shimadzu Prominence UFLC attached to a QTrap 4500 equipped with a Turbo V ion source (Sciex). Samples were injected onto an XSelect® HSS C18, 2.5 μm, 2.1 × 150 mm column using a flow rate of 0.2 ml/min. Solvent A was 0.1% formic acid in water, and Solvent B was acetonitrile + 0.1% formic acid. […] The MRM transition for pantothenate was 220.0 / 184.1 m/z and [^13C^15N]pantothenate was 224.0 / 188.1 m/z both with a declustering potential, 35 V and collision energy, 22 V. The system was controlled by the Analyst® software (Sciex) and analyzed with MultiQuant™ 3.0.2 software (Sciex). Intracellular pantothenate was measured as pmoles/mg wet weight.

HEK293T cells = experiment: Intracellular CoA levels in transfected HEK293T cells; assay type: cell-based, human; settings: 10 μM, 24 h
Protocol: Chloroform 1.5 ml, 1.2 ml water and 30 pmol of [^13C2]acetyl-CoA (Sigma) was added, and centrifuged at 2000×g for 10 min. The top layer was loaded on a 2-(2-pyridyl) ethyl solid phase extraction column which was equilibrated with 1 ml 50% methanol/2% acetic acid. The column was washed twice with 1 ml 50% methanol/2% acetic acid and 1 ml water. […] Samples were resuspended in 90% methanol containing 15 mM ammonium hydroxide.

Microsomal stability [2] = settings: rat, microsomes
Protein binding [3] = settings: rat
Protein binding [4] = settings: human
Plasma stability [5] = assay type: in vitro ADME; settings: human, read-out: Plasma Stability T1/2
Protein binding [6] = settings: mouse
Plasma stability [7] = assay type: in vitro ADME; settings: mouse, read-out: Plasma Stability T1/2
Microsomal stability [8] = settings: mouse, microsomes
Caco2 permeability = assay type: in vitro ADME; settings: human, Caco-2; read-out: Caco2 Permeability Efflux Ratio (B2A/A2B)
Plasma stability [9] = assay type: in vitro ADME; settings: rat, read-out: Plasma Stability T1/2 (converted)
PAMPA-BBB = assay type: in vitro ADME; settings: BBB = Blood Brain Barrier, read-out: PAMPA-BBB, Avg Pe
human PANK3 = target: T1, human PANK3 (Homo sapiens, UniProt Q9H999); experiment: PANK activity assay (radiochemical, without acetyl-CoA); assay type: biochemical
T1 construct: His; made in house
Protocol: The assay was linear with time and after 10 min at 37 °C the reaction was stopped by the addition of 4 μl of 10% (v/v) acetic acid. […] All the experiments were repeated twice in duplicate and the data were an average ± data range.
The IC50 values for the structure–activity study were calculated by fitting the inhibition data to a one-site model of the Michaelis–Menten equation. […] (GraphPad software) that accounts for the impact of enzyme-inhibitor binding on the free concentration of inhibitor.

Microsomal stability [10] = settings: human, microsomes

T1 sequence (Q9H999 whole entry): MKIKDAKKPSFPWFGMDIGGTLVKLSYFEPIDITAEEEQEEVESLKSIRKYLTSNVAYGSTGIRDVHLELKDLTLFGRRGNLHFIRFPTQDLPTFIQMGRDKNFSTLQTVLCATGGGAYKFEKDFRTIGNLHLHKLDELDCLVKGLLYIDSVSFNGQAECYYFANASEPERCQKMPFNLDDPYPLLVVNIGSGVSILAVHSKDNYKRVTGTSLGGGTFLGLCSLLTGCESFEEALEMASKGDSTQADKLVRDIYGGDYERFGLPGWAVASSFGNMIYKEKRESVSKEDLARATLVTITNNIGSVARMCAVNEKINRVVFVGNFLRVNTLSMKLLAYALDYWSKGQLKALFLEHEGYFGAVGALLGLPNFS

| Structure (SMILES) | solubility (Solubility at pH 7.4) | CoA content of C3A cells on varying pantothenate in medium (C3A cells; pantothenate alone, without PZ-2891) | concentration at 4 h [1] | intracellular CoA, PANK3 overexpressing HEK293T cells (HEK293T cells) | half-life (Microsomal stability [2]) | total intracellular CoA levels in C3A cells (C3A cells; 24 h, increasing concentrations (20 and 50 μM less activating)) | fraction unbound (Protein binding [3]) | PAMPA; Avg Pe (PAMPA) | fraction unbound (Protein binding [4]) | half-life (Plasma stability [5]) | fraction unbound (Protein binding [6]) | half-life (Plasma stability [7]) | half-life (Microsomal stability [8]) | efflux ratio (Caco2 permeability) | half-life (Plasma stability [9]) | Papp (PAMPA-BBB) | IC50 (human PANK3) | inhibition of PANK3 (in words) (human PANK3; negative control) | half-life (Microsomal stability [10]) |
| --- | --- | --- | --- | --- | --- | --- | --- | --- | --- | --- | --- | --- | --- | --- | --- | --- | --- | --- | --- |
| CC(C)c1ccc(CC(=O)N2CCN(c3ccc(C#N)cn3)CC2)cc1 [PZ-2863] | 25 µM (≈ 8.71 µg/mL) | – | – | – | – | – | – | – | – | – | – | – | – | – | – | – | – | – | – |
| CC(C)(CO)[C@@H](O)C(=O)NCCC(=O)O [pantothenate, D-pantothenic acid, hemicalcium salt] | – | no effect on CoA content | 24.4 µM | – | – | – | – | – | – | – | – | – | – | – | – | – | – | – | – |
| CC(C)c1ccc(C(=O)CN2CCN(c3ccc(C#N)nn3)CC2)cc1 [PZ-3067, 6-(4-(2-(4-isopropylphenyl)-2-oxoethyl)piperazin-1-yl)pyridazine-3-carbonitrile] | 18 µM (≈ 6.29 µg/mL) | – | – | inactive | 13.2 min | did not respond | 0.1 | 204 10-6 cm/s | 0.04 | > 50 h | 0.04 | > 50 h | 30.6 min | 0.5 | 27 h | 0.8 ×10⁻⁶ cm/s | > 100 µM | no effect; also recorded: Inactive | 9 min |
| CC(C)(C)c1ccc(NC(=O)N2CCN(c3ccc(C#N)cn3)CC2)cc1 [PZ-2789, N-(4-(tert-butyl)phenyl)-4-(5-cyanopyridin-2-yl)piperazine-1-carboxamide] | 1.4 µM (≈ 0.509 µg/mL) | – | – | – | 30.6 min | – | 0.02 | 1232 10-6 cm/s | – | > 50 h | – | > 50 h | 15.6 min | – | > 50 h | 303 ×10⁻⁶ cm/s | – | – | 7.8 min |
